{"source": "ChEMBL document CHEMBL5584201", "about": "“Amphiphilic tribasic galactosamines potentiate rifampicin in Gram-negative bacteria at low Mg++/Ca++concentrations” (Bioorg Med Chem Lett, 2024)", "key": {"Pseudomonas aeruginosa [1]": {"system": "Pseudomonas aeruginosa", "assay": "Antibacterial activity against Pseudomonas aeruginosa PAO1 in low salt containing media by Mueller-Hinton broth based assay", "assay_type": "functional"}, "Acinetobacter baumannii [2]": {"system": "Acinetobacter baumannii", "assay": "Antibacterial activity against Acinetobacter baumannii ATCC 17978 in low salt containing media by Mueller-Hinton broth based assay", "assay_type": "functional"}, "Escherichia coli [3]": {"system": "Escherichia coli", "assay": "Antibacterial activity against Escherichia coli ATCC 25922 in low salt containing media by Mueller-Hinton broth based assay", "assay_type": "functional"}, "Pseudomonas aeruginosa [4]": {"system": "Pseudomonas aeruginosa", "assay": "Potentiation of rifampicin-induced antibacterial activity against Pseudomonas aeruginosa PAO1 assessed as rifampicin MIC in low salt containing media by Mueller-Hinton broth based assay", "assay_type": "functional"}, "Acinetobacter baumannii [5]": {"system": "Acinetobacter baumannii", "assay": "Potentiation of rifampicin-induced antibacterial activity against Acinetobacter baumannii ATCC 17978 assessed as rifampicin MIC in low salt containing media by Mueller-Hinton broth based assay", "assay_type": "functional"}, "Escherichia coli [6]": {"system": "Escherichia coli", "assay": "Potentiation of rifampicin-induced antibacterial activity against Escherichia coli ATCC 25922 assessed as rifampicin MIC in low salt containing media by Mueller-Hinton broth based assay", "assay_type": "functional"}, "Pseudomonas aeruginosa [7]": {"system": "Pseudomonas aeruginosa", "assay": "Potentiation of rifampicin-induced antibacterial activity against Pseudomonas aeruginosa PAO1 assessed as fold change in rifampicin MIC in low salt containing media by Mueller-Hinton broth based assay", "assay_type": "functional"}, "Acinetobacter baumannii [8]": {"system": "Acinetobacter baumannii", "assay": "Potentiation of rifampicin-induced antibacterial activity against Acinetobacter baumannii ATCC 17978 assessed as fold change in rifampicin MIC in low salt containing media by Mueller-Hinton broth based assay", "assay_type": "functional"}, "Escherichia coli [9]": {"system": "Escherichia coli", "assay": "Potentiation of rifampicin-induced antibacterial activity against Escherichia coli ATCC 25922 assessed as fold change in rifampicin MIC in low salt containing media by Mueller-Hinton broth based assay", "assay_type": "functional"}, "Acinetobacter baumannii [10]": {"system": "Acinetobacter baumannii", "assay": "Potentiation of rifampicin-induced antibacterial activity against multidrug resistant Acinetobacter baumannii AB027 assessed as fold change in rifampicin MIC at 1/4 MIC in low salt containing media by Mueller-Hinton broth based assay", "assay_type": "functional"}, "Acinetobacter baumannii [11]": {"system": "Acinetobacter baumannii", "assay": "Potentiation of rifampicin-induced antibacterial activity against multidrug resistant Acinetobacter baumannii clinical isolate 92247 assessed as fold change in rifampicin MIC at 1/4 MIC in low salt containing media by Mueller-Hinton broth based assay", "assay_type": "functional"}, "Acinetobacter baumannii [12]": {"system": "Acinetobacter baumannii", "assay": "Potentiation of rifampicin-induced antibacterial activity against multidrug resistant Acinetobacter baumannii clinical isolate 110193 assessed as fold change in rifampicin MIC at 1/4 MIC in low salt containing media by Mueller-Hinton broth based assay", "assay_type": "functional"}, "Acinetobacter baumannii [13]": {"system": "Acinetobacter baumannii", "assay": "Potentiation of rifampicin-induced antibacterial activity against multidrug resistant Acinetobacter baumannii LAC-4 assessed as fold change in rifampicin MIC at 1/4 MIC in low salt containing media by Mueller-Hinton broth based assay", "assay_type": "functional"}, "Escherichia coli [14]": {"system": "Escherichia coli", "assay": "Potentiation of rifampicin-induced antibacterial activity against Escherichia coli clinical isolate 94393 assessed as fold change in rifampicin MIC at 1/4 MIC in low salt containing media by Mueller-Hinton broth based assay", "assay_type": "functional"}, "Escherichia coli [15]": {"system": "Escherichia coli", "assay": "Potentiation of rifampicin-induced antibacterial activity against Escherichia coli clinical isolate 94474 assessed as fold change in rifampicin MIC at 1/4 MIC in low salt containing media by Mueller-Hinton broth based assay", "assay_type": "functional"}, "Escherichia coli [16]": {"system": "Escherichia coli", "assay": "Potentiation of rifampicin-induced antibacterial activity against Escherichia coli clinical isolate 107115 assessed as fold change in rifampicin MIC at 1/4 MIC in low salt containing media by Mueller-Hinton broth based assay", "assay_type": "functional"}, "Pseudomonas aeruginosa [17]": {"system": "Pseudomonas aeruginosa", "assay": "Antibacterial activity against Pseudomonas aeruginosa PAO1 in high concentration of Ca++ and Mg++ containing media by Mueller-Hinton broth based assay", "assay_type": "functional"}, "Pseudomonas aeruginosa [18]": {"system": "Pseudomonas aeruginosa", "assay": "Antibacterial activity against Pseudomonas aeruginosa PA262 in high concentration of Ca++ and Mg++ containing media by Mueller-Hinton broth based assay", "assay_type": "functional"}, "Acinetobacter baumannii [19]": {"system": "Acinetobacter baumannii", "assay": "Antibacterial activity against Acinetobacter baumannii ATCC 17978 in high concentration of Ca++ and Mg++ containing media by Mueller-Hinton broth based assay", "assay_type": "functional"}, "Pseudomonas aeruginosa [20]": {"system": "Pseudomonas aeruginosa", "assay": "Potentiation of rifampicin-induced antibacterial activity against Pseudomonas aeruginosa PA262 assessed as rifampicin MIC at 2 to 8 microg/ml in high concentration of Ca++ and Mg++ containing media by Mueller-Hinton broth based assay", "assay_type": "functional", "details": "dose 2-8 µg/ml"}, "Acinetobacter baumannii [21]": {"system": "Acinetobacter baumannii", "assay": "Potentiation of rifampicin-induced antibacterial activity against Acinetobacter baumannii ATCC 17978 assessed as rifampicin MIC at 2 to 8 microg/ml in high concentration of Ca++ and Mg++ containing media by Mueller-Hinton broth based assay", "assay_type": "functional", "details": "dose 2-8 µg/ml"}, "Acinetobacter baumannii [22]": {"system": "Acinetobacter baumannii", "assay": "Potentiation of rifampicin-induced antibacterial activity against Acinetobacter baumannii 92247 assessed as rifampicin MIC at 2 to 8 microg/ml in high concentration of Ca++ and Mg++ containing media by Mueller-Hinton broth based assay", "assay_type": "functional", "details": "dose 2-8 µg/ml"}, "Escherichia coli [23]": {"system": "Escherichia coli", "assay": "Potentiation of rifampicin-induced antibacterial activity against Escherichia coli ATCC 25922 assessed as rifampicin MIC at 2 to 8 microg/ml in high concentration of Ca++ and Mg++ containing media by Mueller-Hinton broth based assay", "assay_type": "functional", "details": "dose 2-8 µg/ml"}, "Pseudomonas aeruginosa [24]": {"system": "Pseudomonas aeruginosa", "assay": "Potentiation of rifampicin-induced antibacterial activity against Pseudomonas aeruginosa PAO1 assessed as fold change in rifampicin MIC at 2 to 8 microg/ml in high concentration of Ca++ and Mg++ containing media by Mueller-Hinton broth based assay", "assay_type": "functional", "details": "dose 2-8 µg/ml"}, "Pseudomonas aeruginosa [25]": {"system": "Pseudomonas aeruginosa", "assay": "Potentiation of rifampicin-induced antibacterial activity against Pseudomonas aeruginosa PA262 assessed as fold change in rifampicin MIC at 2 to 8 microg/ml in high concentration of Ca++ and Mg++ containing media by Mueller-Hinton broth based assay", "assay_type": "functional", "details": "dose 2-8 µg/ml"}, "Acinetobacter baumannii [26]": {"system": "Acinetobacter baumannii", "assay": "Potentiation of rifampicin-induced antibacterial activity against Acinetobacter baumannii 92247 assessed as fold change in rifampicin MIC at 2 to 8 microg/ml in high concentration of Ca++ and Mg++ containing media by Mueller-Hinton broth based assay", "assay_type": "functional", "details": "dose 2-8 µg/ml"}, "Acinetobacter baumannii [27]": {"system": "Acinetobacter baumannii", "assay": "Potentiation of rifampicin-induced antibacterial activity against Acinetobacter baumannii ATCC 17978 assessed as rifampicin MIC at 16 microg/ml in high concentration of Ca++ and Mg++ containing media by Mueller-Hinton broth based assay", "assay_type": "functional", "details": "dose 16 µg/ml"}, "Escherichia coli [28]": {"system": "Escherichia coli", "assay": "Potentiation of rifampicin-induced antibacterial activity against Escherichia coli ATCC 25922 assessed as rifampicin MIC at 16 microg/ml in high concentration of Ca++ and Mg++ containing media by Mueller-Hinton broth based assay", "assay_type": "functional", "details": "dose 16 µg/ml"}, "Escherichia coli [29]": {"system": "Escherichia coli", "assay": "Potentiation of rifampicin-induced antibacterial activity against Escherichia coli […] assessed as rifampicin MIC at 16 microg/ml in high concentration of Ca++ and Mg++ containing media by Mueller-Hinton broth based assay", "assay_type": "functional", "details": "dose 16 µg/ml"}, "Acinetobacter baumannii [30]": {"system": "Acinetobacter baumannii", "assay": "Potentiation of rifampicin-induced antibacterial activity against Acinetobacter baumannii ATCC 17978 assessed as fold change in rifampicin MIC at 16 microg/ml in high concentration of Ca++ and Mg++ containing media by Mueller-Hinton broth based assay", "assay_type": "functional", "details": "dose 16 µg/ml"}, "Acinetobacter baumannii [31]": {"system": "Acinetobacter baumannii", "assay": "Potentiation of rifampicin-induced antibacterial activity against Acinetobacter baumannii 92247 assessed as fold change in rifampicin MIC at 16 microg/ml in high concentration of Ca++ and Mg++ containing media by Mueller-Hinton broth based assay", "assay_type": "functional", "details": "dose 16 µg/ml"}, "Escherichia coli [32]": {"system": "Escherichia coli", "assay": "Potentiation of rifampicin-induced antibacterial activity against Escherichia coli […] assessed as fold change in rifampicin MIC at 16 microg/ml in high concentration of Ca++ and Mg++ containing media by Mueller-Hinton broth based assay", "assay_type": "functional", "details": "dose 16 µg/ml"}, "[33]": {"assay": "Cytotoxicity against HEK293 cells assessed as cell viability at 9 uM relative to control", "assay_type": "toxicity, cell-based", "details": "human, read-out: Activity"}}, "data": [{"smiles": "CCCCCCCCO[C@@H]1O[C@H](CN)[C@H](N)[C@H](OCc2ccc3ccccc3c2)[C@H]1N", "values": [{"measurement": "MIC", "setting": "Pseudomonas aeruginosa [1]", "value": 32, "unit": "µg/mL"}, {"measurement": "MIC", "setting": "Acinetobacter baumannii [2]", "value": 16, "unit": "µg/mL"}, {"measurement": "MIC", "setting": "Escherichia coli [3]", "value": 8, "unit": "µg/mL"}, {"measurement": "MIC", "setting": "Pseudomonas aeruginosa [4]", "value": 8, "unit": "µg/mL"}, {"measurement": "MIC", "setting": "Acinetobacter baumannii [5]", "value": 4, "unit": "µg/mL"}, {"measurement": "MIC", "setting": "Escherichia coli [6]", "value": 2, "unit": "µg/mL"}, {"measurement": "fold change (FC)", "setting": "Pseudomonas aeruginosa [7]", "value": 2}, {"measurement": "fold change (FC)", "setting": "Acinetobacter baumannii [8]", "value": 256}, {"measurement": "fold change (FC)", "setting": "Escherichia coli [9]", "value": 128}, {"measurement": "fold change (FC)", "setting": "Acinetobacter baumannii [10]", "value": 64}, {"measurement": "fold change (FC)", "setting": "Acinetobacter baumannii [11]", "value": 64}, {"measurement": "fold change (FC)", "setting": "Acinetobacter baumannii [12]", "value": 64}, {"measurement": "fold change (FC)", "setting": "Acinetobacter baumannii [13]", "value": 64}, {"measurement": "fold change (FC)", "setting": "Escherichia coli [14]", "value": 64}, {"measurement": "fold change (FC)", "setting": "Escherichia coli [15]", "value": 64}, {"measurement": "fold change (FC)", "setting": "Escherichia coli [16]", "value": 64}, {"measurement": "MIC", "setting": "Pseudomonas aeruginosa [17]", "value": "> 128", "unit": "µg/mL"}, {"measurement": "MIC", "setting": "Pseudomonas aeruginosa [18]", "value": "> 128", "unit": "µg/mL"}, {"measurement": "MIC", "setting": "Acinetobacter baumannii [19]", "value": "≥ 64", "unit": "µg/mL"}, {"measurement": "MIC", "setting": "Pseudomonas aeruginosa [20]", "value": 8, "unit": "µg/mL"}, {"measurement": "MIC", "setting": "Acinetobacter baumannii [21]", "value": 4, "unit": "µg/mL"}, {"measurement": "MIC", "setting": "Acinetobacter baumannii [22]", "value": 4, "unit": "µg/mL"}, {"measurement": "MIC", "setting": "Escherichia coli [23]", "value": 2, "unit": "µg/mL"}, {"measurement": "fold change (FC)", "setting": "Pseudomonas aeruginosa [24]", "value": 1}, {"measurement": "fold change (FC)", "setting": "Pseudomonas aeruginosa [25]", "value": 1}, {"measurement": "fold change (FC)", "setting": "Acinetobacter baumannii [26]", "value": 2}, {"measurement": "MIC", "setting": "Acinetobacter baumannii [27]", "value": 16, "unit": "µg/mL"}, {"measurement": "MIC", "setting": "Escherichia coli [28]", "value": 16, "unit": "µg/mL"}, {"measurement": "MIC", "setting": "Escherichia coli [29]", "value": 16, "unit": "µg/mL"}, {"measurement": "fold change (FC)", "setting": "Acinetobacter baumannii [30]", "value": 1}, {"measurement": "fold change (FC)", "setting": "Acinetobacter baumannii [31]", "value": 32}, {"measurement": "fold change (FC)", "setting": "Escherichia coli [32]", "value": 8}, {"measurement": "viability at 9 µM", "setting": "[33]", "value": 46.4, "unit": "%"}]}]}
